These results are taken from patent US8497296B2, “N,N′-hydrazino-bis-isatin derivatives with selective activity against multidrug-resistant cancer cells” (King Saud University, priority 2011, dated 2013).

Bounds are passed on as bounds.

One assay deals with KB-3-1 cells. Put plainly: MTT cytotoxicity assay, parental KB-3-1 cell line. In kind it is cell-based. Particulars: Homo sapiens, parental KB-3-1 cells (HeLa derivative), 72 h incubation, at least three experiments, read-out: IC50 KB3-1. Here is the method:
(§1) The cytotoxicity of the prepared compounds was evaluated at Laboratory of Cell Biology, National Cancer Institute, National Institutes of Health, Bethesda, Md. 20892, Group in Biomolecular, USA, using the following protocol:
KB-3-1 cells (a HeLa deriviative) and its MDR derivative (KB-V1) were grown as previously described. Cell survival was measured by the MTT (3-(4,5-dimethylthiazol-2-yl)-2,5-diphenyltetrazolium bromide) assay as previously described. Briefly, cells were seeded in 100 μL of growth medium at a density of 5000 cells/well in 96-well plates and allowed to establish for 24 h, at which time serially diluted drugs were added in an additional 100 μL of growth medium. Cells were then incubated for 72 h at 37° C. in humidified 5% CO2, at which time the growth medium was drawn and replaced with MTT in IMDM growth medium and incubated for 4 h. The MTT solution was then drawn from the wells, and 100 μL of acidified ethanol solution was added to each well and after 15 min absorption at 560 nm was measured. […] The effect of treatment on cell viability was determined using the luminescent Cell Titer Glo Assay (Promega).
On the technique in general: Tetrazolium dyes change colour on reduction, which living cells bring about.

The next assay deals with KB-V1 cells. Put plainly: MTT cytotoxicity assay, P-glycoprotein-expressing MDR cell line KB-V1. In kind it is cell-based. To be noted: for IC50: Homo sapiens, P-glycoprotein-expressing MDR KB-V1 cells, 72 h incubation, MTT, at least three experiments, read-out: IC50 KBV1; for RR (MDR1 selectivity): ratio of IC50 against KB-3-1 cells divided by IC50 against KB-V1 cells, >1 = MDR1-selective. Here is the method: as §1
KB-3-1 cells (a HeLa deriviative) and its MDR derivative (KB-V1) were grown as previously described. Cell survival was measured by the MTT (3-(4,5-dimethylthiazol-2-yl)-2,5-diphenyltetrazolium bromide) assay as previously described. Briefly, cells were seeded in 100 μL of growth medium at a density of 5000 cells/well in 96-well plates and allowed to establish for 24 h, at which time serially diluted drugs were added in an additional 100 μL of growth medium. Cells were then incubated for 72 h at 37° C. in humidified 5% CO2, at which time the growth medium was drawn and replaced with MTT in IMDM growth medium and incubated for 4 h. The MTT solution was then drawn from the wells, and 100 μL of acidified ethanol solution was added to each well and after 15 min absorption at 560 nm was measured. […]

In the case of `O=C1Nc2ccccc2/C1=N/N=C1\C(=O)Nc2ccc(Cl)cc21` [Compound 6, (Z)-5-Chloro-3-((Z)-(2-oxoindolin-3-ylidene)hydrazono)indolin-2-one], the half-inhibitory concentration (IC50) in the assay with KB-3-1 cells worked out at 9.67 ± 1.74 µM. In the assay on KB-V1 cells, the IC50 was determined as 7.72 ± 0.5 µM and the “RR (MDR1 selectivity)” value came to 1.25.
Taken in the same sequence, the figures for `O=C1Nc2ccc(F)cc2/C1=N/N=C1\C(=O)N(c2ccccc2)c2ccccc21` [Compound 12, (Z)-5-Fluoro-3-((Z)-(2-oxo-1-phenylindolin-3-ylidene)hydrazono)indolin-2-one] were 10.2 ± 1.52 µM, 11.2 ± 0.61 µM and 0.91.
For `O=C1Nc2ccccc2/C1=N/N=C1\C(=O)Nc2ccc(Br)cc21` [Compound 7, (Z)-5-Bromo-3-((Z)-(2-oxoindolin-3-ylidene)hydrazono)indolin-2-one], in the assay on KB-3-1 cells, the IC50 amounted to 9.71 ± 0.31 µM. Besides, in the assay with KB-V1 cells, the 50% inhibitory concentration (IC50) came out at 7.58 ± 1.43 µM and the “RR (MDR1 selectivity)” value stood at 1.28.
As for `Cc1ccc2c(c1)/C(=N/N=C1\C(=O)Nc3ccc(F)cc31)C(=O)N2` [Compound 21, (Z)-5-Fluoro-3-((Z)-(5-methyl-2-oxoindolin-3-ylidene)hydrazono)indolin-2-one], the IC50 with KB-3-1 cells was found to be 18.9 ± 0.46 µM; in the assay with KB-V1 cells, 17.9 ± 0.82 µM. Besides, in the assay with KB-V1 cells, the “RR (MDR1 selectivity)” value was 1.06.
Take `O=C1Nc2ccccc2/C1=N/N=C1\C(=O)N(c2ccccc2)c2ccccc21` [Compound 4, (Z)-3-((Z)-(2-Oxoindolin-3-ylidene)hydrazono)-1-phenylindolin-2-one]: the IC50 with KB-3-1 cells is 8.7 ± 2.21 µM. Further, in the assay on KB-V1 cells, the IC50 came out at 10.8 ± 1.1 µM and the “RR (MDR1 selectivity)” value is listed as 0.81.
With `O=C1Nc2ccc(F)cc2/C1=N/N=C1\C(=O)Nc2ccc([N+](=O)[O-])cc21` [Compound 22, (Z)-5-Fluoro-3-((Z)-(5-nitro-2-oxoindolin-3-ylidene)hydrazono)indolin-2-one], the IC50 in the assay on KB-3-1 cells stood at 56 ± 1.5 µM. In the assay on KB-V1 cells, the IC50 worked out at 38.6 ± 13.5 µM and the “RR (MDR1 selectivity)” value is 1.45.
For the molecule `O=C1Nc2ccccc2/C1=N/N=C1\C(=O)Nc2ccc(F)cc21` [Compound 5, (Z)-5-Fluoro-3-((Z)-(2-oxoindolin-3-ylidene)hydrazono)indolin-2-one], the IC50 with KB-3-1 cells is 28.1 ± 2.48 µM; in the assay with KB-V1 cells, 25.3 ± 10.1 µM. Further, the “RR (MDR1 selectivity)” value in the assay with KB-V1 cells was 1.11.
Consider `N/N=C1\C(=O)Nc2ccccc21` [Compound 2a, (Z)-3-Hydrazonoindolin-2-one], for which the results for the concentration for half-maximal inhibition (IC50) in the assay with KB-3-1 cells and with KB-V1 cells were over 500 µM and 125 ± 39.4 µM, respectively.
Regarding `O=C1Nc2ccccc2/C1=N/N=C1\C(=O)Nc2ccc([N+](=O)[O-])cc21` [Compound 9, (Z)-5-Nitro-3-((Z)-(2-oxoindolin-3-ylidene)hydrazono)indolin-2-one], the IC50 in the assay on KB-3-1 cells was found to be 29.2 ± 2.81 µM. Also, in the assay on KB-V1 cells, the IC50 turned out to be 30.4 ± 6.75 µM and the “RR (MDR1 selectivity)” value was 0.96.
As to `O=C1Nc2ccc(Cl)cc2/C1=N/N=C1\C(=O)N(c2ccccc2)c2ccccc21` [Compound 13, (Z)-5-Chloro-3-((Z)-(2-oxo-1-phenylindolin-3-ylidene)hydrazono)indolin-2-one], the IC50 in the assay on KB-3-1 cells turned out to be 6.79 ± 0.63 µM. Further, in the assay with KB-V1 cells, the IC50 is 6.07 ± 1.19 µM and the “RR (MDR1 selectivity)” value stood at 1.12.
As for `O=C1Nc2ccccc2/C1=N/N=C1\C(=O)Nc2ccc(OC(F)(F)F)cc21` [Compound 10, (Z)-3-((Z)-(2-Oxoindolin-3-ylidene)hydrazono)-5-(trifluoromethoxy)indolin-2-one], the IC50 in the assay with KB-3-1 cells came to 9.75 ± 0.11 µM. In the assay on KB-V1 cells, the IC50 is 5.67 ± 1.18 µM and the “RR (MDR1 selectivity)” value is listed as 1.72.
Consider `O=C1Nc2ccc([N+](=O)[O-])cc2/C1=N/N=C1\C(=O)N(c2ccccc2)c2ccccc21` [Compound 16, (Z)-5-Nitro-3-((Z)-(2-oxo-1-phenylindolin-3-ylidene)hydrazono)indolin-2-one], for which, in the assay on KB-3-1 cells, the IC50 was 37.1 ± 4.05 µM. Also, in the assay with KB-V1 cells, the IC50 worked out at 48.6 ± 2.32 µM and the “RR (MDR1 selectivity)” value turned out to be 0.76.
On to `O=C1Nc2ccc(OC(F)(F)F)cc2/C1=N/N=C1\C(=O)N(c2ccccc2)c2ccccc21` [Compound 17, ((Z)-3-(Z)-(2-oxo-1-phenylindolin-3-ylidene)hydrazono)-5-(trifluoromethoxy)indolin-2-one], for which the values for the IC50 with KB-3-1 cells and with KB-V1 cells were 7.67 ± 0.88 µM and 4.8 ± 0.12 µM, respectively. For the same molecule, the “RR (MDR1 selectivity)” value with KB-V1 cells was 1.60.
Turning to `Cc1ccc2c(c1)/C(=N/N=C1\C(=O)Nc3ccccc31)C(=O)N2` [Compound 8, (Z)-5-Methyl-3-((Z)-(2-oxoindolin-3-ylidene)hydrazono)indolin-2-one], the IC50 in the assay with KB-3-1 cells was 12.1 ± 3.14 µM. In the assay with KB-V1 cells, the IC50 stood at 14.9 ± 1.26 µM and the “RR (MDR1 selectivity)” value is reported as 0.81.
As to `O=C1Nc2ccc(F)cc2/C1=N/N=C1\C(=O)Nc2ccc(OC(F)(F)F)cc21` [Compound 23, (Z)-5-Fluoro-3-((Z)-(2-oxo-5-(trifluoromethoxy)indolin-3-ylidene)hydrazono)indolin-2-one], the IC50 in the assay with KB-3-1 cells was determined as 15.2 ± 1.34 µM. In the assay on KB-V1 cells, the IC50 was found to be 11.6 ± 2.55 µM and the “RR (MDR1 selectivity)” value is given as 1.31.
On to `O=C1Nc2ccccc2/C1=N/N=C1\C(=O)Nc2ccccc21` [Compound 3, (3Z,3′Z)-3,3′-(Hydrazine-1,2-diylidene)diindolin-2-one], for which the IC50 with KB-3-1 cells turned out to be 17.1 ± 0.83 µM. In the assay on KB-V1 cells, the IC50 was 17.3 ± 1.59 µM and the “RR (MDR1 selectivity)” value came out at 0.99.
For the molecule `O=C1Nc2ccc(F)cc2/C1=N/N=C1\C(=O)Nc2ccc(F)cc21` [Compound 18, (3Z,3′Z)-3,3′-(Hydrazine-1,2-diylidene)bis(5-fluoroindolin-2-one)], in the assay on KB-3-1 cells, the IC50 stood at 20.4 ± 4.62 µM. Also, in the assay on KB-V1 cells, the IC50 came out at 16.5 ± 6.28 µM and the “RR (MDR1 selectivity)” value is 1.23.
Consider `O=C1Nc2ccc(Br)cc2/C1=N/N=C1\C(=O)N(c2ccccc2)c2ccccc21` [Compound 14, (Z)-5-Bromo-3-((Z)-(2-oxo-1-phenylindolin-3-ylidene)hydrazono)indolin-2-one], for which the IC50 in the assay on KB-3-1 cells turned out to be 7.93 ± 2.11 µM; in the assay on KB-V1 cells it was 8.71 ± 0.27 µM. In the assay on KB-V1 cells, the “RR (MDR1 selectivity)” value amounted to 0.91.
With `O=C1Nc2ccc(F)cc2/C1=N/N=C1\C(=O)Nc2ccc(Br)cc21` [Compound 20, (Z)-5-Bromo-3-((Z)-(5-fluoro-2-oxoindolin-3-ylidene)hydrazono)indolin-2-one], the IC50 in the assay on KB-3-1 cells worked out at 15.4 ± 3.97 µM. Also, in the assay on KB-V1 cells, the IC50 turned out to be 18.6 ± 2.01 µM and the “RR (MDR1 selectivity)” value came out at 0.83.
As for `O=C1Nc2ccc(F)cc2/C1=N/N=C1\C(=O)Nc2ccc(Cl)cc21` [Compound 19, (Z)-5-Chloro-3-((Z)-(5-fluoro-2-oxoindolin-3-ylidene)hydrazono)indolin-2-one], the IC50 in the assay with KB-3-1 cells stood at 17.4 ± 4.41 µM. Moreover, in the assay with KB-V1 cells, the IC50 was 11.3 ± 3.26 µM and the “RR (MDR1 selectivity)” value came out at 1.54.
With `O=C1/C(=N\N=C2/C(=O)N(c3ccccc3)c3ccccc32)c2ccccc2N1c1ccccc1` [Compound 11, (3Z,3′Z)-3,3′-(Hydrazine-1,2-diylidene)bis(1-phenylindolin-2-one)], the IC50 with KB-3-1 cells worked out at 25.6 ± 2.39 µM. In the assay on KB-V1 cells, the IC50 amounted to 22 ± 2.37 µM and the “RR (MDR1 selectivity)” value worked out at 1.16.
For the molecule `Cc1ccc2c(c1)/C(=N/N=C1\C(=O)N(c3ccccc3)c3ccccc31)C(=O)N2` [Compound 15, (Z)-5-Methyl-3-((Z)-(2-oxo-1-phenylindolin-3-ylidene)hydrazono)indolin-2-one], the results for the IC50 with KB-3-1 cells and with KB-V1 cells were 8.37 ± 0.62 µM and 8.06 ± 1.68 µM, respectively. Moreover, the “RR (MDR1 selectivity)” value in the assay with KB-V1 cells was 1.04.

One may read the IC50 as the concentration at which inhibition is half-maximal.
